# Test system: women with insomnia secondary to perimenopause or menopause
# Assay: Clinical study: number of nocturnal awakenings due to hot flashes
# Type: in vivo
# Settings: for Number of Nocturnal Awakenings due to Hot Flashes, Observed Value, Mean (SD) / Number of Nocturnal Awakenings due to Hot Flashes, Observed Value, 25th Percentile / Number of Nocturnal Awakenings due to Hot Flashes, Observed Value, 75th Percentile / Number of Nocturnal Awakenings due to Hot Flashes, Observed Value, Maximum / Number of Nocturnal Awakenings due to Hot Flashes, Observed Value, Median / Number of Nocturnal Awakenings due to Hot Flashes, Observed Value, Minimum / Number of Nocturnal Awakenings due to Hot Flashes, Change from Baseline, 25th Percentile / Number of Nocturnal Awakenings due to Hot Flashes, Change from Baseline, 75th Percentile / Number of Nocturnal Awakenings due to Hot Flashes, Change from Baseline, Maximum / Number of Nocturnal Awakenings due to Hot Flashes, Change from Baseline, Mean (SD) / Number of Nocturnal Awakenings due to Hot Flashes, Change from Baseline, Median / Number of Nocturnal Awakenings due to Hot Flashes, Change from Baseline, Minimum / Number of Nocturnal Awakenings due to Hot Flashes, Change from Baseline, Least Squares Means (SE) [3] / Number of Nocturnal Awakenings due to Hot Flashes, Observed Value, Least Squares Means (SE) [2]: ITT; for Number of Nocturnal Awakenings due to Hot Flashes, Change from Baseline, Least Squares Means (SE) [3]: ANCOVA; for Number of Nocturnal Awakenings due to Hot Flashes, Observed Value, Least Squares Means (SE) [2]: ANOVA
# Experimental: The study was aimed at observing efficacy of eszopiclone 3 mg compared to placebo in the treatment of insomnia secondary to perimenopause or menopause. The study was a multicenter, randomized, double-blind, placebo-controlled, parallel-group study. […] The primary method of analysis compared the post-randomization results between the two treatment groups.
# Subjects were women with insomnia secondary to perimenopause or menopause. Subjects were perimenopausal or menopausal and had insomnia symptoms including ≧45 minutes sleep latency (SL) and total sleep time (TST) ≦6 hours. Perimenopausal/menopausal symptoms predated the onset of sleep disturbance symptoms. The patient population was predominately Caucasian (77.2%). The mean age was 49, with a range of 40-60.
# A total of 410 subjects were randomized. Among them, 201 received 3 mg of eszopiclone (ESZ) nightly (at bedtime) for four weeks and 209 received matching placebo (PBO).
compound,measurement,setting,value
"CN1CCN(C(=O)O[C@H]2c3nccnc3C(=O)N2c2ccc(Cl)cn2)CC1 [Eszopiclone, (+)6-(5-chloropyrid-2-yl)-5-(4-methylpiperazin-1-yl)carbonyloxy-7-oxo-6,7-dihydro-5H-pyrrolo[3-4-b]pyrazine]","Number of Nocturnal Awakenings due to Hot Flashes, Observed Value, Mean (SD)","Baseline (average of all pre-DB observations), 3 mg group",1.3 (1.2)
same,"Number of Nocturnal Awakenings due to Hot Flashes, Observed Value, 25th Percentile","Baseline, 3 mg group",0.3
same,"Number of Nocturnal Awakenings due to Hot Flashes, Observed Value, 75th Percentile","Baseline, 3 mg group",2.0
same,"Number of Nocturnal Awakenings due to Hot Flashes, Observed Value, Maximum","Baseline, 3 mg group",6.0
same,"Number of Nocturnal Awakenings due to Hot Flashes, Observed Value, Median","Baseline, 3 mg group",1.0
same,"Number of Nocturnal Awakenings due to Hot Flashes, Observed Value, Minimum","Baseline, 3 mg group",0.0
same,"Number of Nocturnal Awakenings due to Hot Flashes, Change from Baseline, 25th Percentile","DB Average, 3 mg nightly",−1.1
same,"Number of Nocturnal Awakenings due to Hot Flashes, Change from Baseline, 75th Percentile","DB Average, 3 mg nightly",0.0
same,"Number of Nocturnal Awakenings due to Hot Flashes, Change from Baseline, Maximum","DB Average, 3 mg nightly",1.5
same,"Number of Nocturnal Awakenings due to Hot Flashes, Change from Baseline, Mean (SD)","DB Average, 3 mg nightly",−0.7 (1.0)
same,"Number of Nocturnal Awakenings due to Hot Flashes, Change from Baseline, Median","DB Average, 3 mg nightly",−0.5
same,"Number of Nocturnal Awakenings due to Hot Flashes, Change from Baseline, Minimum","DB Average, 3 mg nightly",−6.0
same,"Number of Nocturnal Awakenings due to Hot Flashes, Observed Value, 25th Percentile","DB Average, 3 mg nightly",0.0
same,"Number of Nocturnal Awakenings due to Hot Flashes, Observed Value, 75th Percentile","DB Average, 3 mg nightly",0.9
same,"Number of Nocturnal Awakenings due to Hot Flashes, Observed Value, Maximum","DB Average, 3 mg nightly",2.7
same,"Number of Nocturnal Awakenings due to Hot Flashes, Observed Value, Mean (SD)","DB Average, 3 mg nightly",0.5 (0.6)
same,"Number of Nocturnal Awakenings due to Hot Flashes, Observed Value, Median","DB Average, 3 mg nightly",0.2
same,"Number of Nocturnal Awakenings due to Hot Flashes, Observed Value, Minimum","DB Average, 3 mg nightly",0.0
same,"Number of Nocturnal Awakenings due to Hot Flashes, Change from Baseline, Least Squares Means (SE) [3]","DB Average, 3 mg nightly",−0.7 (0.1)
same,"Number of Nocturnal Awakenings due to Hot Flashes, Observed Value, Least Squares Means (SE) [2]","DB Average, 3 mg nightly",0.5 (0.1)
same,"nocturnal awakenings due to hot flashes, LS means","Week 1, 3 mg nightly",0.3 per night
same,"Number of Nocturnal Awakenings due to Hot Flashes, Change from Baseline, 25th Percentile","Week 1, 3 mg nightly",−1.2
same,"Number of Nocturnal Awakenings due to Hot Flashes, Change from Baseline, 75th Percentile","Week 1, 3 mg nightly",0.0
same,"Number of Nocturnal Awakenings due to Hot Flashes, Change from Baseline, Maximum","Week 1, 3 mg nightly",0.8
same,"Number of Nocturnal Awakenings due to Hot Flashes, Change from Baseline, Mean (SD)","Week 1, 3 mg nightly",−0.7 (1.0)
same,"Number of Nocturnal Awakenings due to Hot Flashes, Change from Baseline, Median","Week 1, 3 mg nightly",−0.5
same,"Number of Nocturnal Awakenings due to Hot Flashes, Change from Baseline, Minimum","Week 1, 3 mg nightly",−6.0
same,"Number of Nocturnal Awakenings due to Hot Flashes, Observed Value, 25th Percentile","Week 1, 3 mg nightly",0.0
same,"Number of Nocturnal Awakenings due to Hot Flashes, Observed Value, 75th Percentile","Week 1, 3 mg nightly",1.0
same,"Number of Nocturnal Awakenings due to Hot Flashes, Observed Value, Maximum","Week 1, 3 mg nightly",3.0
same,"Number of Nocturnal Awakenings due to Hot Flashes, Observed Value, Mean (SD)","Week 1, 3 mg nightly",0.5 (0.7)
same,"Number of Nocturnal Awakenings due to Hot Flashes, Observed Value, Median","Week 1, 3 mg nightly",0.2
same,"Number of Nocturnal Awakenings due to Hot Flashes, Observed Value, Minimum","Week 1, 3 mg nightly",0.0
same,"Number of Nocturnal Awakenings due to Hot Flashes, Change from Baseline, Least Squares Means (SE) [3]","Week 1, 3 mg nightly",−0.7 (0.1)
same,"Number of Nocturnal Awakenings due to Hot Flashes, Observed Value, Least Squares Means (SE) [2]","Week 1, 3 mg nightly",0.5 (0.1)
same,"Number of Nocturnal Awakenings due to Hot Flashes, Change from Baseline, 25th Percentile","Week 2, 3 mg nightly",−1.0
same,"Number of Nocturnal Awakenings due to Hot Flashes, Change from Baseline, 75th Percentile","Week 2, 3 mg nightly",0.0
same,"Number of Nocturnal Awakenings due to Hot Flashes, Change from Baseline, Maximum","Week 2, 3 mg nightly",2.0
same,"Number of Nocturnal Awakenings due to Hot Flashes, Change from Baseline, Mean (SD)","Week 2, 3 mg nightly",−0.7 (1.0)
same,"Number of Nocturnal Awakenings due to Hot Flashes, Change from Baseline, Median","Week 2, 3 mg nightly",−0.6
same,"Number of Nocturnal Awakenings due to Hot Flashes, Change from Baseline, Minimum","Week 2, 3 mg nightly",−6.0
same,"Number of Nocturnal Awakenings due to Hot Flashes, Observed Value, 25th Percentile","Week 2, 3 mg nightly",0.0
same,"Number of Nocturnal Awakenings due to Hot Flashes, Observed Value, 75th Percentile","Week 2, 3 mg nightly",1.0
same,"Number of Nocturnal Awakenings due to Hot Flashes, Observed Value, Maximum","Week 2, 3 mg nightly",3.0
same,"Number of Nocturnal Awakenings due to Hot Flashes, Observed Value, Mean (SD)","Week 2, 3 mg nightly",0.5 (0.7)
same,"Number of Nocturnal Awakenings due to Hot Flashes, Observed Value, Median","Week 2, 3 mg nightly",0.0
same,"Number of Nocturnal Awakenings due to Hot Flashes, Observed Value, Minimum","Week 2, 3 mg nightly",0.0
same,"Number of Nocturnal Awakenings due to Hot Flashes, Change from Baseline, Least Squares Means (SE) [3]","Week 2, 3 mg nightly",−0.6 (0.1)
same,"Number of Nocturnal Awakenings due to Hot Flashes, Observed Value, Least Squares Means (SE) [2]","Week 2, 3 mg nightly",0.5 (0.1)
same,"Number of Nocturnal Awakenings due to Hot Flashes, Change from Baseline, 25th Percentile","Week 3, 3 mg nightly",−1.0
same,"Number of Nocturnal Awakenings due to Hot Flashes, Change from Baseline, 75th Percentile","Week 3, 3 mg nightly",0.0
same,"Number of Nocturnal Awakenings due to Hot Flashes, Change from Baseline, Maximum","Week 3, 3 mg nightly",1.5

# From US7465729B2, “Methods of treatment of menopause and perimenopause using eszopiclone” (Sepracor Inc., priority 2004, dated 2008)
